Columns and labels:
Oryctolagus cuniculus = organism: Oryctolagus cuniculus; experiment: Hyperthermic potency in rabbit relative to DOM; assay type: functional
Homo sapiens = organism: Homo sapiens; experiment: Human hallucinogenic activity relative to mescaline; assay type: functional
[1] = Equilibrium constant for DNB complex formation; design: unit not given here
[2] = Partition coefficient (logP); assay type: physicochemical; conditions: octanol/water
[3] = molecular target: 5-hydroxytryptamine receptor 2B (Rattus norvegicus, UniProt P30994); experiment: Affinity against 5-hydroxytryptamine 2B receptor in the isolated rat stomach fundus; assay type: tissue-based; conditions: read-out: pA2 (converted)
5-hydroxytryptamine receptor 2B, sequence (P30994 whole entry): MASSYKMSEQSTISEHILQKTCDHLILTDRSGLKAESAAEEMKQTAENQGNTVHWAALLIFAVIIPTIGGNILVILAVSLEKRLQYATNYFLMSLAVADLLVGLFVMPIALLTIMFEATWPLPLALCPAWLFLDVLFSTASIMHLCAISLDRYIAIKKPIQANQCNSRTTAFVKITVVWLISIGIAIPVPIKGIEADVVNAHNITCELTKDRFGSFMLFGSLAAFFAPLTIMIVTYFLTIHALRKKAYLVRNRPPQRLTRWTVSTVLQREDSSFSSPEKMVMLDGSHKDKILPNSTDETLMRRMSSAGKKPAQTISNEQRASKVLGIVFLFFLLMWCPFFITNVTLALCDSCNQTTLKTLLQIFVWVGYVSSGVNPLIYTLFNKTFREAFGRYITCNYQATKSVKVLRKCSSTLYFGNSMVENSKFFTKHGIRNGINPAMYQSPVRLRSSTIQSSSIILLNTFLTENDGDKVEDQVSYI

Row | Compound | Relative activity (Oryctolagus cuniculus) | Relative activity (Homo sapiens) | KDNB [1] | logP ([2]; read-out: logP) | Kb [3] [nM] | logP [2]
1 | COc1cc(CC(C)N)cc(OC)c1OC (stereo not drawn) | 3.6 | 2.2 | 3.14 | 1.48 | 2510 | –
2 | COc1cccc(CC(C)N)c1 (stereo not drawn) | – | – | 0.96 | – | 1200 | –
3 | COc1ccc(OC)c(CC(C)N)c1 (stereo not drawn) | – | – | – | 1.88 | – | 1.72
4 | CC(N)Cc1ccccc1 (stereo not drawn) | – | – | 0.55 | – | – | –
5 | COc1ccc(CC(C)N)cc1 (stereo not drawn) [PARA-METHOXYAMPHETAMINE] | – | 4 | 1.02 | 1.77 | 6920 | –
6 | COc1cc(OC)c(CC(C)N)cc1Br (stereo not drawn) | 2.3 | 4 | – | 2.61 | – | –
7 | COc1cc(OC)c(SC)cc1CC(C)N (stereo not drawn) | 2.8 | 1 | – | 2.22 | 1700 | –
8 | COc1cc(C)c(CC(C)N)cc1OC (stereo not drawn) | 0.5 | – | – | 1.66 | 1380 | –
9 | COc1cc(CC(C)N)c(SC)cc1OC (stereo not drawn) | 1.7 | – | – | 1.71 | – | –
10 | COc1ccc(CC(C)N)cc1OC (stereo not drawn) | <<0.3 | <1 | 1.95 | 1 | 3550 | 1.2
11 | COc1cc(OC)c(CC(C)N)cc1C (stereo not drawn) | 0.9 | – | – | 2.31 | 2450 | –
12 | COc1cc(SC)c(OC)cc1CC(C)N (stereo not drawn) | 53.9 | 50 | – | 2.17 | – | –
13 | COc1cccc(OC)c1CC(C)N (stereo not drawn) | – | – | 1.49 | – | 8130 | –
14 | CC(N)Cc1ccc2c(c1)OCO2 (stereo not drawn) [TENAMFETAMINE] | – | – | 0.68 | 1.63 | – | –
15 | COc1cc(OC)c(CC(C)N)c(OC)c1 (stereo not drawn) | 3.1 | 10 | 2.09 | 1.57 | 525 | –
16 | COc1ccc(CC(C)N)c(OC)c1 (stereo not drawn) | 2.5 | 5 | 1.32 | 1.75 | 2510 | –
17 | COc1cc(CC(C)N)c(OC)cc1C (stereo not drawn) [DOM] | 100 | 80 | – | 2.08 | 75.9 | 2.24
18 | COc1cc(Br)c(CC(C)N)cc1OC (stereo not drawn) | 3.4 | – | – | 1.96 | 1780 | –
19 | COc1cc(CC(C)N)c(OC)cc1Br (stereo not drawn) [BROLAMFETAMINE] | – | – | – | 2.58 | – | 2.54
20 | COc1ccc(CC(C)N)c(OC)c1OC (stereo not drawn) | <<0.3 | <2 | 1.7 | 1.36 | 8510 | –
21 | COc1cc(OC)c(OC)cc1CC(C)N (stereo not drawn) | 11.8 | 17 | 1.7 | 1.74 | 155 | 1.1

— ChEMBL document CHEMBL1121754 (J Med Chem, 1981)
